The results in this text go back to PMC4373826, “Antiviral Effect of Methylated Flavonol Isorhamnetin against Influenza” (PLoS ONE, 2015).

For series [1], the system named is influenza A/PR/8/34 (H1N1). In words: microbe, parasite or virus in culture. Particulars: MDCK.
The subject of series [2] is influenza A/PR/8/34 (H1N1). In words: in vitro. To be noted: dog, SI (selective index, CC50/EC50), Post-treatment.
Series [3] in a line: Cytotoxicity assay (EZ-Cytox) in MDCK cells. Format: cell-based, canine. To be noted: dog; MDCK cells, 48 hr. How it is done: (§1) To determine the 50% cytotoxic concentration (CC50) for each of the tested flavonoid compounds, MDCK cells were seeded onto 96-well plates (NUNC, Penfield, NY, USA) at a density of 1 × 10^4 cells per well and incubated overnight for 80% confluence. MDCK cells were washed twice with PBS and the culture medium was replaced with medium containing serially diluted flavonoids (concentrations from 10μM up to 300 μM) for 48 hr at 37°C in a 5% CO2atmosphere. After the incubation period, the flavonoid-containing media was replaced with new media containing 10% EZ-Cytox (Daeil Lab Service, Seoul, South Korea), and the cells were incubated in the dark for 3 hr at 37°C in a 5% CO2 atmosphere. The optical density was measured at 480 nm using an x-Mark spectrophotometer (Bio-Rad, Hercules, CA, USA). Cytotoxicity was estimated by comparing the cell survival rate of the flavonoids-treated cells and the DMSO-treated cells with the control (virus-untreated) cells. The control cell values were arbitrarily set as the 100% survival rate. The treated cells values were normalized to the control cell values. The calculation of CC50 was carried out as described in detail in S1 Text.
(§2) The 50% cytotoxic concentration (CC50) was calculated according to the following equation:
(§3) Cytotoxicity (%) = [100-(ODt/ODs)] x100
(§4) ODt: The optical density (OD) of cells treated with the tested flavonoids.
(§5) ODs: The OD of cells treated with the control solvent (0.2 % DMSO).
(§6) After obtaining the results, we calculated the concentration that induces 50% cell death using the following equation:
(§7) (X2 - X1) X (50-Y1) / (Y2 - Y1) + X1. Where, X1 represents the lower concentration used in this experiment, while X2 represents the higher concentration. Y1 represents the mean of the percentage of the viable cells at X1 concentration. On the other hand, Y2 represents the mean of the percentage of the viable cells at X2 concentration.”

Series [4] has as its system MDCK cells. The experiment in a line: Cytotoxicity assay (EZ-Cytox) in MDCK cells. Format: cell-based, canine. Particulars: especially at 50μM and 100μM. How it is done:
as §1, §2, §3, §4, §5, §6, §7

Series [5] deals with influenza A/PR/8/34 (H1N1). Format: cell-based, influenza A virus. To be noted: post-treatment 48 hr.
Series [6] concerns influenza A/PR/8/34 (H1N1). Particulars: post-treatment.

One may read the EC50 as the concentration needed to bring the measured effect to its halfway point. For the molecule `COc1ccc(-c2cc(=O)c3c(O)cc(O)cc3o2)cc1O` [Diosmetin, diosmetin], the response in series [1] (48 h, Post-treatment) was half-maximal at 124 µM (EC50).

As usually defined, the CC50 is the concentration at which the toxic effect on the cells reaches its halfway point. `O=C1C[C@@H](c2ccc(O)c(O)c2)Oc2cc(O)cc(O)c21` [Eriodictyol, eriodictyol]: the selectivity ratio in series [2] is 2. In addition, the EC50 in series [1] (48 h, Post-treatment) amounted to 115 µM. The molecule also returned a CC50 at 48 h in series [3] of 256 µM. The “cell viability of MDCK cells” value in series [4] is recorded as “significant decrease”.

For `O=c1c(O)c(-c2ccc(O)cc2)oc2cc(O)cc(O)c12` [Kaempferol, kaempferol], the selectivity ratio in series [2] amounted to 7. Also, the “virus titer in HA assay (virus yield reduction)” value in series [5] is reported as “significantly decreased”. The molecule further returned an EC50 in series [1] (48 h, Post-treatment) of 35 µM. Besides, the “influenza virus-induced cell death” value in series [6] is “apparent suppression”. In addition, the CC50 at 48 h in series [3] turned out to be 245 µM.

For the molecule `O=c1c(O)c(-c2ccc(O)c(O)c2)oc2cc(O)cc(O)c12` [Quercetin, quercetin], the selectivity ratio in series [2] is above 9. Further, the “virus titer in HA assay (virus yield reduction)” value in series [5] was “significantly decreased”. In addition, the EC50 in series [1] (0.5 h, Co-treatment (0.5 hr)) came out at 106 µM; in series [1] (1 h, Co-treatment (1 hr)), 62 µM; in series [1] (2 h, Co-treatment (2 hr)), 43 µM; in series [1] (48 h, Post-treatment), 30 µM; in series [1] (Pre-treatment (1 hr)), 78 µM; in series [1] (Pre-treatment (12 hr)), 85 µM. In addition, the EC50 in series [1] (Pre-treatment (24 hr)) is 98 µM. The “influenza virus-induced cell death” value in series [6] is “apparent suppression”. In series [3], the CC50 at 48 h was above 265 µM.
